The values that follow come from PubChem BioAssay (NCI).

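Exposure lasted 48 hours, with cells grown in 96-well plates and compounds tested at five concentrations. GI50 marks 50% less growth. TGI denotes the concentration required for complete inhibition of growth.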

One assay relates to OVCAR-3 ovarian. The assay can be described thus: DTP human tumour cell line panel, 48 h.
Consider `COc1ccc(-c2nnc(COc3ccc(C(=O)/C=C/c4ccco4)cc3)o2)cc1`, for which the GI50 (usually the concentration giving 50% growth inhibition) was 1.95 µM and the TGI (commonly the concentration giving total growth inhibition) is 3.95 µM.
In turn, `OC(c1nc2ccccc2[nH]1)C(O)C(O)C(O)c1nc2ccccc2[nH]1` (stereo not given) had a TGI greater than 100 µM.
Turning to `COc1cc2c3c(n(C)c(=O)c2cc1OC)-c1cc2c(cc1/C3=C\CCCN)OCO2`, the GI50 is 13.8 µM and the TGI was 29.8 µM.
The corresponding values for `Cc1c2c(nn1-c1ccc(S(=O)(=O)/N=C3\SCCC(=O)N3c3ccccc3)cc1)-c1ccccc1CC2` are greater than 100 µM and greater than 100 µM.
On to `C=C1C(=O)O[C@H]2[C@H]1CC/C(COC(=O)c1c[nH]c3ccccc13)=C\CC[C@@]1(C)O[C@@H]21`, for which the GI50 is 0.207 µM and the TGI is 0.483 µM.
`O=C1NCC2(CCN(CCCC3(c4ccc(F)cc4)OCCO3)CC2)N1c1ccccc1` showed a TGI greater than 100 µM.
`CCN(CC)/C(SCc1ccccc1)=C(\C(Cl)=C(Cl)Cl)[N+](=O)[O-]` returned a TGI of 24.3 µM.
`COc1cc(/C=C2\CN(S(=O)(=O)c3ccccc3)C/C(=C\c3cc(CN4CCCC4)c(O)c(OC)c3)C2=O)cc(CN2CCCC2)c1O`: the GI50 was 1.02 µM and the TGI was determined as 3.05 µM.

For the next assay, the system named is CAKI-1 renal. The experiment in a line: DTP human tumour cell line panel, 48 h.
For the compound `CCOC(=O)c1cc2nc3ccccc3c(=O)n2c2ccccc12`, the TGI was greater than 10 µM.
Compound `Cc1ccc(S(=O)(=O)Nc2ccccc2C(=O)c2ccc(C)c(C)c2)cc1` gave a TGI greater than 100 µM.
The same measure, in the same setting: then `COc1c(Cl)c(=O)oc2ccc(Cl)cc12`, with greater than 100 µM; and `NS(=O)(=O)c1cc(Br)c(N=Nc2ccc(O)c3ncccc23)c(Br)c1`, with greater than 100 µM.
For `Cc1cc(I)cc(CN(C)CCCN2CCCCC2)c1O`, the GI50 was 17 µM and the TGI is 35.3 µM.
`COc1cc(NCc2ccc3oc(=O)c(-c4ccccc4)nc3c2)cc(OC)c1OC` came in with a TGI greater than 10 µM.
As to `Cc1ccccc1S(=O)(=O)OC1NS(=O)(=O)c2ccccc21` (stereo not given), the TGI is greater than 100 µM.
As for `CC(=O)[C@@]12O[C@@H]1CC1C3CCC4=CC(O)CCC4(C)C3CCC12C` (stereo not given in full), the GI50 was greater than 100 µM and the TGI was greater than 100 µM.
The compound `O=[N+]([O-])C(/C=C(\Cl)n1nnc2ccccc21)=C(/Cl)n1nnc2ccccc21` returned a TGI greater than 100 µM.
As to `O=C1c2cc3c(cc2-c2c1c1ccc(F)cc1c(=O)n2CCCNCCO)OCO3`, the GI50 is 0.0628 µM and the TGI was determined as 1.44 µM.
As for `COc1ccc(/C=C(/C#N)n2nnc3cccc(F)c32)cc1`, the GI50 was 0.733 µM and the TGI worked out at 11.8 µM.
Regarding `COc1ccc(-c2nnc(COc3ccc(C(=O)/C=C/c4ccco4)cc3)o2)cc1`, the GI50 was 6.11 µM and the TGI was 19.7 µM.
For `OC(c1nc2ccccc2[nH]1)C(O)C(O)C(O)c1nc2ccccc2[nH]1` (stereo not given), the TGI is greater than 100 µM.
`COc1cc2c3c(n(C)c(=O)c2cc1OC)-c1cc2c(cc1/C3=C\CCCN)OCO2`: the GI50 was 1.99 µM and the TGI worked out at 8.62 µM.
For the compound `Cc1c2c(nn1-c1ccc(S(=O)(=O)/N=C3\SCCC(=O)N3c3ccccc3)cc1)-c1ccccc1CC2`, the GI50 was greater than 100 µM and the TGI was greater than 100 µM.
Turning to `O=C1NCC2(CCN(CCCC3(c4ccc(F)cc4)OCCO3)CC2)N1c1ccccc1`, the TGI is greater than 100 µM.
On to `CCN(CC)/C(SCc1ccccc1)=C(\C(Cl)=C(Cl)Cl)[N+](=O)[O-]`, for which the TGI was 73.5 µM.
With `COc1cc(/C=C2\CN(S(=O)(=O)c3ccccc3)C/C(=C\c3cc(CN4CCCC4)c(O)c(OC)c3)C2=O)cc(CN2CCCC2)c1O`, the GI50 is 1.83 µM and the TGI amounted to 5.21 µM.

A further assay relates to NCI/ADR-RES ovarian. The assay can be described thus: DTP human tumour cell line panel, 48 h.
Regarding `CCOC(=O)c1cc2nc3ccccc3c(=O)n2c2ccccc12`, the TGI was greater than 10 µM.
With `Cc1ccc(S(=O)(=O)Nc2ccccc2C(=O)c2ccc(C)c(C)c2)cc1`, the TGI was greater than 100 µM.
Regarding `COc1c(Cl)c(=O)oc2ccc(Cl)cc12`, the TGI is greater than 100 µM.
For the compound `NS(=O)(=O)c1cc(Br)c(N=Nc2ccc(O)c3ncccc23)c(Br)c1`, the TGI turned out to be 65.5 µM. That is a double-digit micromolar value.
Take `Cc1cc(I)cc(CN(C)CCCN2CCCCC2)c1O`: the GI50 is 21.9 µM and the TGI came to 59 µM.
The compound `COc1cc(NCc2ccc3oc(=O)c(-c4ccccc4)nc3c2)cc(OC)c1OC` yielded a TGI greater than 10 µM.
`Cc1ccccc1S(=O)(=O)OC1NS(=O)(=O)c2ccccc21` (stereo not given) registered a TGI greater than 100 µM.
As for `CC(=O)[C@@]12O[C@@H]1CC1C3CCC4=CC(O)CCC4(C)C3CCC12C` (stereo not given in full), the GI50 was 20.4 µM and the TGI is greater than 100 µM.
With `C=C(Br)C(C)(Br)CCC(Br)C(C)(C)Cl` (stereo not given), the TGI was 54.2 µM.
For the compound `O=[N+]([O-])C(/C=C(\Cl)n1nnc2ccccc21)=C(/Cl)n1nnc2ccccc21`, the TGI was greater than 100 µM.
As to `O=C1c2cc3c(cc2-c2c1c1ccc(F)cc1c(=O)n2CCCNCCO)OCO3`, the 50% growth inhibitory concentration (GI50) is 0.0374 µM and the TGI is 1.08 µM.
The corresponding values for `COc1ccc(-c2nnc(COc3ccc(NC(=O)Nc4cc(C(F)(F)F)cc(C(F)(F)F)c4)cc3F)o2)cc1` are 1.91 µM and 5.16 µM.
On to `COc1ccc(/C=C(/C#N)n2nnc3cccc(F)c32)cc1`, for which the GI50 is 0.371 µM and the TGI amounted to 3.37 µM.
For `COc1ccc(-c2nnc(COc3ccc(C(=O)/C=C/c4ccco4)cc3)o2)cc1`, the GI50 is 8.62 µM and the TGI is 25 µM.
With `OC(c1nc2ccccc2[nH]1)C(O)C(O)C(O)c1nc2ccccc2[nH]1` (stereo not given), the TGI is greater than 100 µM.
For the compound `COc1cc2c3c(n(C)c(=O)c2cc1OC)-c1cc2c(cc1/C3=C\CCCN)OCO2`, the GI50 is 14.5 µM and the TGI came to 74.4 µM.
On the same counts, the results for `Cc1c2c(nn1-c1ccc(S(=O)(=O)/N=C3\SCCC(=O)N3c3ccccc3)cc1)-c1ccccc1CC2` are greater than 100 µM and greater than 100 µM.
On to `C=C1C(=O)O[C@H]2[C@H]1CC/C(COC(=O)c1c[nH]c3ccccc13)=C\CC[C@@]1(C)O[C@@H]21`, for which the GI50 is 0.397 µM and the concentration for total growth inhibition (TGI) amounted to 11 µM.
For `O=C1NCC2(CCN(CCCC3(c4ccc(F)cc4)OCCO3)CC2)N1c1ccccc1`, the TGI was greater than 100 µM.
Compound `CCN(CC)/C(SCc1ccccc1)=C(\C(Cl)=C(Cl)Cl)[N+](=O)[O-]` gave a TGI of 38 µM. In other words, the double-digit micromolar range.
Consider `COc1cc(/C=C2\CN(S(=O)(=O)c3ccccc3)C/C(=C\c3cc(CN4CCCC4)c(O)c(OC)c3)C2=O)cc(CN2CCCC2)c1O`, for which the GI50 is greater than 100 µM and the total growth inhibition concentration (TGI) is greater than 100 µM.
